Measured values: patent US20260125374A1, “PI3K-ALPHA INHIBITORS AND METHODS OF MAKING AND USING THE SAME” (Relay Therapeutics, Inc., priority 2021, published 2026)
Values after ≈ are worked out from the molar mass of the structure shown. Marks after values point to notes of the source that are not given here.

Legend:
Format in all cases: physicochemical
[1] = Stability of I-1 solution during concentration (pH, temperature; chiral purity); conditions: for ee % before concentration: starting value before stirring; for ee % of the product after stirring: from 98.20%
Experimental: To study the chiral stability of product I-1 during concentration, three batches I-1 from Prep-HPLC was tried under different conditions: 1) The ee % of the product changes from 98.20% to 78.95% after stirring over 18 h at 45-50° C. with pH 6-7. 2) The ee % of the product changes from 98.20% to 97.64% after stirring over 18 h at 20-25° C. with pH 6-7. 3) The ee % of the product changes from 98.20% to 98.15% after stirring over 18 h at 45-50° C. with pH 5-6.
Two reactions at 0.5 g I-1 (after SFC preparation) were carried out for stability study. 1) Compound is stable after stirring over 20 h at 10-20° C. with pH 4. 2) The ee % of this compound change from 98.43% to 98.16% after stirring over 20 h at 40-50° C. with pH 4.

[2] = Approximate solubility at 25° C. (visual observation)
Experimental: Max. volume of each solvent added was 1 mL. Approximate solubility was determined by visual observation.

[3] = Light impact on chiral purity
Experimental: Four reactions were carried out to study the impact of light on chiral purity under neutral and basic condition.

[4] = Stability of I-1 solution during concentration (pH, temperature; chiral purity); conditions: for Purity / ee %: 1N HCl; for ee %: start ee 98.43%
[5] = Investigation of factors impacting racemization
From the text: Therefore, the factors impacting racemization were investigated including pH, temperature, molecular sieve and experimental duration. […] It is worth noted that racemization can be accelerated when solvents are pretreated by molecular sieve, since the pH value is shifted to basic after pretreatment.
During DSC test for I-1 Form A, different heating rates result in different thermal events. To investigate whether racemization occurs during heating, I-1 Form A was heated to different temperatures then obtained solids were tested by SFC.

[6] = 10-20° C. MeOH, pH 4, stir for 4 h
[7] = after heating to 260° C. at 2° C./min by DSC
[8] = after heating to 300° C. at 2° C./min by DSC

N#Cc1c(-c2cc(NC(=O)c3cc(F)cc(C(F)(F)F)c3)c3c(c2)C(=O)N[C@H]3c2cc(F)ccc2Cl)ccc2ncnn12 [Compound I-1, (R)-N-(3-(2-chloro-5-fluorophenyl)-6-(5-cyano-[1,2,4]triazolo[1,5-a]pyridin-6-yl)-1-oxoisoindolin-4-yl)-3-fluoro-5-(trifluoromethyl)benzamide]
Purity ([1]; 10-20° C. MeOH, 1N HCl, pH 4, stir for 20 h): 99.54%
ee % ([1]; 10-20° C. MeOH, 1N HCl, pH 4, stir for 20 h, start ee 98.43%): 98.39%
Purity ([1]; 10-20° C. MeOH, 1N HCl, pH 4, stir for 68 h): 99.53%
ee % ([1]; 10-20° C. MeOH, 1N HCl, pH 4, stir for 68 h, start ee 98.43%): 98.27%
ee % ([1]; 20-25° C. MeOH, pH 6-7, stir for 18 h, start ee 98.20%): 97.64%
Purity ([1]; 40-50° C. MeOH, 1N HCl, pH 4, stir for 4 h): 99.51%
Purity ([1]; 40-50° C. MeOH, 1N HCl, pH 4, stir for 20 h): 99.37%
ee % ([1]; 40-50° C. MeOH, 1N HCl, pH 4, stir for 20 h, start ee 98.43%): 98.16%
ee % ([1]; 40-50° C. MeOH, 1N HCl, pH 4, stir for 68 h, start ee 98.43%): 97.92%
purity and chiral purity change in solution ([1]; 40˜50° C. stirring for 68 h): slight degrade
ee % ([1]; 45-50° C. MeOH, 1N HCl, pH 5-6, stir for 18 h, start ee 98.20%): 98.15%
ee % ([1]; 45-50° C. MeOH, pH 6-7, stir for 18 h, start ee 98.20%): 78.95%
ee % before concentration ([1]; I-1 after SFC preparation): ee % 98.43%
ee % before concentration ([1]; I-1 from Prep-HPLC): ee % 98.20%
stability of compound I-1 solution ([1]; dependence on pH): stable when pH at 4˜5
ee % of the product after stirring ([1]; over 18 h at 20-25° C. with pH 6-7): 97.64%
ee % of the product after stirring ([1]; over 18 h at 45-50° C. with pH 5-6): 98.15%
ee % of the product after stirring ([1]; over 18 h at 45-50° C. with pH 6-7): 78.95%
stability after stirring ([1]; over 20 h at 10-20° C. with pH 4): stable
ee % after stirring ([1]; over 20 h at 40-50° C. with pH 4, from 98.43%): 98.16%
Solubility ([2]; 1,4-dioxane, organic solvent or mixture, thermodynamic from solid, 1,4-Dioxane, polymorph screening batch): 29 to 33 mg/mL (≈ 47.6 to 54.2 mM)
Solubility ([2]; 2-MeTHF, organic solvent or mixture, thermodynamic from solid, polymorph screening batch): 5 to 6 mg/mL (≈ 8.21 to 9.85 mM)
Solubility ([2]; acetone, organic solvent or mixture, thermodynamic from solid, polymorph screening batch): 43 to 52 mg/mL (≈ 70.6 to 85.4 mM)
Solubility ([2]; acetone, organic solvent or mixture, thermodynamic from solid, starting material for salt screening): 12 to 17 mg/mL
Solubility ([2]; acetonitrile, organic solvent or mixture, thermodynamic from solid, polymorph screening batch): 10 to 11 mg/mL (≈ 16.4 to 18.1 mM)
Solubility ([2]; acetonitrile, organic solvent or mixture, thermodynamic from solid, starting material for salt screening): 10 to 17 mg/mL
Solubility ([2]; anisole, organic solvent or mixture, thermodynamic from solid, polymorph screening batch): < 5 mg/mL
Solubility ([2]; benzyl alcohol, organic solvent or mixture, thermodynamic from solid, polymorph screening batch): 16 to 18 mg/mL (≈ 26.3 to 29.6 mM)
Solubility ([2]; chloroform, organic solvent or mixture, thermodynamic from solid, polymorph screening batch): < 5 mg/mL
Solubility ([2]; dichloromethane, organic solvent or mixture, thermodynamic from solid, polymorph screening batch): < 5 mg/mL
Solubility ([2]; dichloromethane, organic solvent or mixture, thermodynamic from solid, starting material for salt screening): < 5 mg/mL
Solubility ([2]; ethanol, organic solvent or mixture, thermodynamic from solid, polymorph screening batch): 6 to 7 mg/mL (≈ 9.85 to 11.5 mM)
Solubility ([2]; ethanol, organic solvent or mixture, thermodynamic from solid, starting material for salt screening): < 5 mg/mL
Solubility ([2]; ethyl acetate, organic solvent or mixture, thermodynamic from solid, polymorph screening batch): 6 to 7 mg/mL (≈ 9.85 to 11.5 mM)
Solubility ([2]; heptane, organic solvent or mixture, thermodynamic from solid, polymorph screening batch): < 5 mg/mL
Solubility ([2]; isopropanol, organic solvent or mixture, thermodynamic from solid, polymorph screening batch): < 5 mg/mL
Solubility ([2]; isopropanol, organic solvent or mixture, thermodynamic from solid, starting material for salt screening): < 5 mg/mL
Solubility ([2]; isopropyl acetate, organic solvent or mixture, thermodynamic from solid, polymorph screening batch): < 5 mg/mL
Solubility ([2]; isopropyl acetate, organic solvent or mixture, thermodynamic from solid, starting material for salt screening): < 5 mg/mL
Solubility ([2]; methanol, organic solvent or mixture, thermodynamic from solid, polymorph screening batch): 15 to 17 mg/mL (≈ 24.6 to 27.9 mM)
Solubility ([2]; methanol, organic solvent or mixture, thermodynamic from solid, starting material for salt screening): 12 to 17 mg/mL
Solubility ([2]; methyl ethyl ketone, organic solvent or mixture, thermodynamic from solid, polymorph screening batch): 26 to 28 mg/mL (≈ 42.7 to 46 mM)
Solubility ([2]; methyl ethyl ketone, organic solvent or mixture, thermodynamic from solid, starting material for salt screening): 12 to 17 mg/mL
Solubility ([2]; nitromethane, organic solvent or mixture, thermodynamic from solid, Nitromethane (NM), polymorph screening batch): 7 to 8 mg/mL (≈ 11.5 to 13.1 mM)
Solubility ([2]; t-butyl methyl ether, organic solvent or mixture, thermodynamic from solid, polymorph screening batch): < 5 mg/mL
Solubility ([2]; tetrahydrofuran, organic solvent or mixture, thermodynamic from solid, polymorph screening batch): 52 to 65 mg/mL (≈ 85.4 to 107 mM)
Solubility ([2]; tetrahydrofuran, organic solvent or mixture, thermodynamic from solid, starting material for salt screening): 33 to 64 mg/mL
Solubility ([2]; toluene, organic solvent or mixture, thermodynamic from solid, polymorph screening batch): < 5 mg/mL
Solubility ([2]; trifluoroethanol, organic solvent or mixture, thermodynamic from solid, starting material for salt screening): 12 to 17 mg/mL
Solubility ([2]; water, thermodynamic from solid, polymorph screening batch): < 5 mg/mL
Solubility ([2]; water, thermodynamic from solid, starting material for salt screening): < 5 mg/mL
ee % ([3]; Avoid light, basic (KOAc), 1 h): 97.91%
ee % ([3]; Avoid light, basic (KOAc), 6 h): 94.79%
ee % ([3]; Avoid light, basic (KOAc), 24 h): 80.92%
ee % ([3]; Avoid light, basic (KOAc), 96 h): 43.30%
ee % ([3]; Avoid light, neutral, 0 h): 98.96%
ee % ([3]; Avoid light, neutral, 6 h): 98.94%
ee % ([3]; Avoid light, neutral, 24 h): 98.96%
ee % ([3]; Avoid light, neutral, 96 h): 98.92%
ee % ([3]; Under light, basic (KOAc), 6 h): 94.35%
ee % ([3]; Under light, basic (KOAc), 24 h): 76.17%
ee % ([3]; Under light, basic (KOAc), 96 h): 30.84%
ee % ([3]; Under light, neutral, 6 h): 98.87%
ee % ([3]; Under light, neutral, 24 h): 97.15%
ee % ([3]; Under light, neutral, 96 h): 81.68%
ee % of product after stirring for 96 h ([3]; base system, avoid-light condition): 43.30%
ee % of product after stirring for 96 h ([3]; base system, under-light condition): 30.84%
ee % of product after stirring for 96 h ([3]; neutral system, avoid-light condition): almost unchanged
ee % of product after stirring for 96 h ([3]; neutral system, under-light condition): 81.68%
Purity [4, 6]: 99.53%
ee % [4, 6]: 98.33%
stability in solution ([4]; 10˜20° C. within 68 h): stable
ee % ([4]; 40-50° C. MeOH, pH 4, stir for 4 h): 98.38%
Purity ([4]; 40-50° C. MeOH, pH 4, stir for 68 h): 99.29%
ee %(SFC) ([5]; Batch #1 as received, SFC after preparation for 12 h): ee % (SFC): 97.7%#;
ee %(SFC) ([5]; Batch #1 as received, SFC immediately after preparation): ee % (SFC): 100.0%*
XRPD [5, 7]: XRPD: low crystallinity
ee %(SFC) [5, 7]: ee % (SFC): 88.1%*
ee %(SFC) ([5]; after heating to 270° C. at 2° C./min by DSC): ee % (SFC): 10.9%*
XRPD [5, 8]: XRPD: amorphous form
ee %(SFC) [5, 8]: ee % (SFC): 2.2%*
racemization during heating (DSC, solids tested by SFC) ([5]; certain high temperatures): racemization indeed occurred
racemization in different solvents ([5]; sped up by basic pH, high temperature, longer time, exposure to light): racemization easily occurs
